# Assay results as given in ChEMBL document CHEMBL1201861, “Genomics of Drug Sensitity in Cancer screening data, Wellcome Trust Sanger Institute”.
# Key:
# Assay in all cases: cells
# LU-139 = assay type: functional, cell-based, Homo sapiens; settings: Homo sapiens, LU-139
# K5 = assay type: functional, cell-based, Homo sapiens; settings: Homo sapiens, K5
# Description: SANGER: Inhibition of human K5 cell growth in a cell viability assay.
# Mo = assay type: functional, cell-based, Homo sapiens; settings: Homo sapiens, Mo
# Description: SANGER: Inhibition of human Mo-T cell growth in a cell viability assay.
# ES4 = assay type: functional, cell-based, Homo sapiens; settings: Homo sapiens, ES4;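 note: growth inhibition of human ES4 cells, read out by a cell viability assay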
# NCI-H1963 = assay type: functional, cell-based, Homo sapiens; settings: Homo sapiens, NCI-H1963;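 note: cell growth inhibition of the human line, determined with a cell viability assay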
# Description: SANGER: Inhibition of human NCI-H1963 cell growth in a cell viability assay.
# KGN = assay type: functional, cell-based, Homo sapiens; settings: Homo sapiens, KGN;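 note: growth inhibition of KGN cells, read out with a cell viability assay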
# Description: SANGER: Inhibition of human KGN cell growth in a cell viability assay.
# NOS-1 = assay type: functional, cell-based, Homo sapiens; settings: Homo sapiens, NOS-1;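 note: growth inhibition of the human NOS-1 cell line, read out with a cell viability assay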
# Description: SANGER: Inhibition of human NOS-1 cell growth in a cell viability assay.
# LOX IMVI = assay type: functional, cell-based, Homo sapiens; settings: Homo sapiens, LOX IMVI
# Description: SANGER: Inhibition of human LOXIMVI cell growth in a cell viability assay.
# LAN-6 = assay type: functional, cell-based, Homo sapiens; settings: Homo sapiens, LAN-6;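 note: growth inhibition of LAN-6 cells, determined with a cell viability assay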
# Description: SANGER: Inhibition of human LAN-6 cell growth in a cell viability assay.
# CGTH-W-1 = assay type: functional, cell-based, Homo sapiens; settings: Homo sapiens, CGTH-W-1;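 note: growth inhibition of human CGTH-W-1 cells measured by cell viability assay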
# Description: SANGER: Inhibition of human CGTH-W-1 cell growth in a cell viability assay.
# TE-8 = assay type: functional, cell-based, Homo sapiens; settings: Homo sapiens, TE-8;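 note: growth inhibition of TE-8 cells, measured with a cell viability readout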
# Description: SANGER: Inhibition of human TE-8 cell growth in a cell viability assay.
# BB49-HNC = assay type: functional, cell-based, Homo sapiens; settings: Homo sapiens, BB49-HNC;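 note: cell viability assay read-out, reported as inhibition of BB49-HNC cell growth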
# Description: SANGER: Inhibition of human BB49-HNC cell growth in a cell viability assay.
# MSTO-211H = assay type: functional, cell-based, Homo sapiens; settings: Homo sapiens, MSTO-211H
# Description: SANGER: Inhibition of human MSTO-211H cell growth in a cell viability assay.
# KM12 = assay type: functional, cell-based, Homo sapiens; settings: Homo sapiens, KM12;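 note: KM12 cell growth inhibition, read out with a cell viability assay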
# Description: SANGER: Inhibition of human KM12 cell growth in a cell viability assay.
# NB69 = assay type: functional, cell-based, Homo sapiens; settings: Homo sapiens, NB69;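 note: growth inhibition of NB69 cells, determined by a cell viability assay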
# Description: SANGER: Inhibition of human NB69 cell growth in a cell viability assay.
# RS4-11 = assay type: functional, cell-based, Homo sapiens; settings: Homo sapiens, RS4-11;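 note: growth inhibition of RS4-11 cells, read out by a cell viability assay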
# Description: SANGER: Inhibition of human RS4-11 cell growth in a cell viability assay.
# KG-1 = assay type: functional, cell-based, Homo sapiens; settings: Homo sapiens, KG-1;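 note: growth inhibition of KG-1 cells, read out by a cell viability assay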
# Description: SANGER: Inhibition of human KG-1 cell growth in a cell viability assay.
# KE-37 = assay type: functional, cell-based, Homo sapiens; settings: Homo sapiens, KE-37;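 note: growth inhibition of KE-37 cells, read out with a cell viability assay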
# Description: SANGER: Inhibition of human KE-37 cell growth in a cell viability assay.
# IST-MES1 = assay type: functional, cell-based, Homo sapiens; settings: Homo sapiens, IST-MES1;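 note: growth inhibition of IST-MES1 cells, measured with a cell viability assay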
# Description: SANGER: Inhibition of human IST-MES1 cell growth in a cell viability assay.
# SK-MEL-2 = assay type: functional, cell-based, Homo sapiens; settings: Homo sapiens, SK-MEL-2;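 note: growth inhibition of human SK-MEL-2 cells measured with a cell viability assay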
# Description: SANGER: Inhibition of human SK-MEL-2 cell growth in a cell viability assay.
# DEL = assay type: functional, cell-based, Homo sapiens; settings: Homo sapiens, DEL;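 note: growth inhibition of the human DEL cell line, read out with a cell viability assay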
# Description: SANGER: Inhibition of human DEL cell growth in a cell viability assay.
# JAR = assay type: functional, cell-based, Homo sapiens; settings: Homo sapiens, JAR;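 note: growth inhibition of human JAR cells determined with a cell viability assay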
# Description: SANGER: Inhibition of human JAR cell growth in a cell viability assay.
# LC-2-ad = assay type: functional, cell-based, Homo sapiens; settings: Homo sapiens, LC-2-ad;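 note: growth inhibition of human LC-2-ad cells, read out with a cell viability assay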
# Description: SANGER: Inhibition of human LC-2-ad cell growth in a cell viability assay.
# HH = assay type: functional, cell-based, Homo sapiens; settings: Homo sapiens, HH
# Description: SANGER: Inhibition of human HH cell growth in a cell viability assay.
# DMS-114 = assay type: functional, cell-based, Homo sapiens; settings: Homo sapiens, DMS-114
# MEG-01 = assay type: functional, cell-based, Homo sapiens; settings: Homo sapiens, MEG-01;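 note: growth inhibition of MEG-01 cells, read out by a cell viability assay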
# Description: SANGER: Inhibition of human MEG-01 cell growth in a cell viability assay.
# HCC2218 = assay type: functional, cell-based, Homo sapiens; settings: Homo sapiens, HCC2218;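 note: cell viability assay read-out, with IC50 given as the concentration that inhibits growth of the cell line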
# Description: SANGER: Inhibition of human HCC2218 cell growth in a cell viability assay.
# EW-16 = assay type: functional, cell-based, Homo sapiens; settings: Homo sapiens, EW-16;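 note: growth inhibition of human EW-16 cells, read out as cell viability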
# Description: SANGER: Inhibition of human EW-16 cell growth in a cell viability assay.
# P30-OHK = assay type: functional, cell-based, Homo sapiens; settings: Homo sapiens, P30-OHK;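 note: growth inhibition of the P30-OHK cell line, read out with a cell viability assay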
# Description: SANGER: Inhibition of human P30-OHK cell growth in a cell viability assay.
# LAMA-84 = assay type: functional, cell-based, Homo sapiens; settings: Homo sapiens, LAMA-84;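 note: growth inhibition of LAMA-84 cells, read out with a cell viability assay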
# TE-10 = assay type: functional, cell-based, Homo sapiens; settings: Homo sapiens, TE-10;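 note: growth inhibition of TE-10 cells, measured by a cell viability assay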
# Description: SANGER: Inhibition of human TE-10 cell growth in a cell viability assay.
# HEL = assay type: functional, cell-based, Homo sapiens; settings: Homo sapiens, HEL;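 note: growth inhibition of HEL cells, read out with a cell viability assay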
# Description: SANGER: Inhibition of human HEL cell growth in a cell viability assay.
# ES7 = assay type: functional, cell-based, Homo sapiens; settings: Homo sapiens, ES7;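 note: growth inhibition of cultured human ES7 cells, read out as cell viability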
# Description: SANGER: Inhibition of human ES7 cell growth in a cell viability assay.
# LB831-BLC = assay type: functional, cell-based, Homo sapiens; settings: Homo sapiens, LB831-BLC;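 note: growth inhibition of LB831-BLC cells, read out with a cell viability assay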
# Description: SANGER: Inhibition of human LB831-BLC cell growth in a cell viability assay.
# DB = assay type: functional, cell-based, Homo sapiens; settings: Homo sapiens, DB
# Description: SANGER: Inhibition of human DB cell growth in a cell viability assay.
# LU-134-A = assay type: functional, cell-based, Homo sapiens; settings: Homo sapiens, LU-134-A
# Description: SANGER: Inhibition of human LU-134-A cell growth in a cell viability assay.
# RCC10RGB = assay type: functional, cell-based, Homo sapiens; settings: Homo sapiens, RCC10RGB;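 note: growth inhibition of human RCC10RGB cells, read out by a cell viability assay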
# Description: SANGER: Inhibition of human RCC10RGB cell growth in a cell viability assay.
# DOHH-2 = assay type: functional, cell-based, Homo sapiens; settings: Homo sapiens, DOHH-2;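 note: growth inhibition of human DOHH-2 cells, read out with a cell viability assay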
# Description: SANGER: Inhibition of human DOHH-2 cell growth in a cell viability assay.
# MZ2-MEL = assay type: functional, cell-based, Homo sapiens; settings: Homo sapiens, MZ2-MEL;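 note: growth inhibition of MZ2-MEL cells read out with a cell viability assay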
# Description: SANGER: Inhibition of human MZ2-MEL cell growth in a cell viability assay.
# SHP77 = assay type: functional, cell-based, Homo sapiens, SHP-77; settings: Homo sapiens, SHP77;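 note: growth inhibition of human SHP-77 cells measured by a cell viability assay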
# NTERA-2-cl-D1 = assay type: functional, cell-based, Homo sapiens; settings: Homo sapiens, NTERA-2-cl-D1;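 note: inhibition of cell growth, measured with a cell viability assay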
# Description: SANGER: Inhibition of human NTERA-S-cl-D1 cell growth in a cell viability assay.
# BB65-RCC = assay type: functional, cell-based, Homo sapiens; settings: Homo sapiens, BB65-RCC;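 note: growth inhibition of the cell line, measured with a cell viability assay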
# Description: SANGER: Inhibition of human BB65-RCC cell growth in a cell viability assay.
# VA-ES-BJ = assay type: functional, cell-based, Homo sapiens; settings: Homo sapiens, VA-ES-BJ;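 note: growth inhibition of the VA-ES-BJ cell line, read out by a cell viability assay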
# Description: SANGER: Inhibition of human VA-ES-BJ cell growth in a cell viability assay.
# ES3 = assay type: functional, cell-based, Homo sapiens; settings: Homo sapiens, ES3;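 note: growth inhibition of ES3 cells, read out with a cell viability assay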
# Description: SANGER: Inhibition of human ES3 cell growth in a cell viability assay.
# KY821 = assay type: functional, cell-based, Homo sapiens; settings: Homo sapiens, KY821;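 note: growth inhibition of human KY821 cells, read out by a cell viability assay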
# Description: SANGER: Inhibition of human KY821 cell growth in a cell viability assay.
# C8166 = assay type: functional, cell-based, Homo sapiens; settings: Homo sapiens, C8166;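 note: growth inhibition of human C8166 cells measured by a cell viability assay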
# Description: SANGER: Inhibition of human C8166 cell growth in a cell viability assay.
# COLO-829 = assay type: functional, cell-based, Homo sapiens; settings: Homo sapiens, COLO-829
# Description: SANGER: Inhibition of human COLO-829 cell growth in a cell viability assay.
# K562 = assay type: functional, cell-based, Homo sapiens; settings: Homo sapiens, K562
# TGBC24TKB = assay type: functional, cell-based; settings: Homo sapiens;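 note: growth inhibition of human TGBC24TKB cells, read out with a cell viability assay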
# Description: SANGER: Inhibition of human TGBC24TKB cell growth in a cell viability assay.
smiles,measurement,setting,value
CC(C)C[C@H](NC(=O)[C@H](Cc1ccccc1)NC(=O)c1cnccn1)B(O)O [BORTEZOMIB],IC50,LU-139,0.00513 µM
same,IC50,K5,0.00128 µM
same,IC50,Mo,0.00274 µM
same,IC50,ES4,0.00216 µM
same,IC50,NCI-H1963,> 0.02 µM
same,IC50,KGN,0.00215 µM
same,IC50,NOS-1,0.00211 µM
same,IC50,LOX IMVI,0.0035 µM
same,IC50,LAN-6,0.00205 µM
same,IC50,CGTH-W-1,0.0031 µM
same,IC50,TE-8,0.00119 µM
same,IC50,BB49-HNC,0.000652 µM
same,IC50,MSTO-211H,> 0.02 µM
same,IC50,KM12,0.00127 µM
same,IC50,NB69,0.00246 µM
same,IC50,RS4-11,> 0.02 µM
same,IC50,KG-1,0.00794 µM
same,IC50,KE-37,0.00213 µM
same,IC50,IST-MES1,> 0.02 µM
same,IC50,SK-MEL-2,> 0.02 µM
same,IC50,DEL,> 0.02 µM
same,IC50,JAR,0.0161 µM
same,IC50,LC-2-ad,0.00108 µM
same,IC50,HH,0.00213 µM
same,IC50,DMS-114,0.00962 µM
same,IC50,MEG-01,0.00349 µM
same,IC50,HCC2218,0.0195 µM
same,IC50,EW-16,0.00275 µM
same,IC50,P30-OHK,> 0.02 µM
same,IC50,LAMA-84,0.00349 µM
same,IC50,TE-10,0.00103 µM
same,IC50,HEL,0.00161 µM
same,IC50,ES7,0.000766 µM
same,IC50,LB831-BLC,0.000641 µM
same,IC50,DB,0.00341 µM
same,IC50,LU-134-A,0.00739 µM
same,IC50,RCC10RGB,0.00393 µM
same,IC50,DOHH-2,> 0.02 µM
same,IC50,MZ2-MEL,0.000407 µM
same,IC50,SHP77,> 0.02 µM
same,IC50,NTERA-2-cl-D1,0.000243 µM
same,IC50,BB65-RCC,0.000304 µM
same,IC50,VA-ES-BJ,0.00109 µM
same,IC50,ES3,> 0.02 µM
same,IC50,KY821,> 0.02 µM
same,IC50,C8166,> 0.02 µM
same,IC50,COLO-829,0.000614 µM
same,IC50,K562,0.00412 µM
COc1ccc(N(C(=O)Oc2c(C)cccc2C)c2ccnc(Nc3ccc(N4CCN(C)CC4)cc3)n2)c(OC)c1,IC50,LU-139,> 5.12 µM
same,IC50,K5,> 5.12 µM
same,IC50,Mo,> 5.12 µM
same,IC50,ES4,> 5.12 µM
same,IC50,NCI-H1963,> 5.12 µM
same,IC50,KGN,1.05 µM
same,IC50,NOS-1,0.95 µM
same,IC50,LOX IMVI,> 5.12 µM
same,IC50,LAN-6,> 5.12 µM
same,IC50,CGTH-W-1,> 5.12 µM
same,IC50,TE-8,0.239 µM
same,IC50,BB49-HNC,> 5.12 µM
same,IC50,MSTO-211H,> 5.12 µM
same,IC50,KM12,> 5.12 µM
same,IC50,NB69,> 5.12 µM
same,IC50,RS4-11,> 5.12 µM
same,IC50,KE-37,> 5.12 µM
same,IC50,IST-MES1,0.357 µM
same,IC50,SK-MEL-2,> 5.12 µM
same,IC50,DEL,> 5.12 µM
same,IC50,JAR,> 5.12 µM
same,IC50,LC-2-ad,0.0203 µM
same,IC50,HH,> 5.12 µM
same,IC50,DMS-114,2.79 µM
same,IC50,MEG-01,< 0.02 µM
same,IC50,HCC2218,> 5.12 µM
same,IC50,EW-16,> 5.12 µM
same,IC50,P30-OHK,> 5.12 µM
same,IC50,LAMA-84,< 0.02 µM
same,IC50,TE-10,4.28 µM
same,IC50,HEL,> 5.12 µM
same,IC50,ES7,> 5.12 µM
same,IC50,LB831-BLC,0.127 µM
same,IC50,DB,> 5.12 µM
same,IC50,LU-134-A,> 5.12 µM
same,IC50,RCC10RGB,0.426 µM
same,IC50,TGBC24TKB,1.04 µM
same,IC50,DOHH-2,< 0.02 µM
same,IC50,MZ2-MEL,3.09 µM
same,IC50,SHP77,> 5.12 µM
same,IC50,NTERA-2-cl-D1,0.289 µM
same,IC50,BB65-RCC,4.7 µM
same,IC50,VA-ES-BJ,0.463 µM
same,IC50,ES3,> 5.12 µM
same,IC50,KY821,> 5.12 µM
same,IC50,C8166,> 5.12 µM
same,IC50,COLO-829,0.312 µM
same,IC50,K562,< 0.02 µM
Cc1ccc(NC(=O)c2ccc(CN3CCN(C)CC3)cc2)cc1Nc1nccc(-c2cccnc2)n1 [IMATINIB],IC50,LU-139,> 2 µM
same,IC50,K5,> 2 µM
same,IC50,Mo,> 2 µM
same,IC50,ES4,> 2 µM
same,IC50,NCI-H1963,> 2 µM
same,IC50,KGN,> 2 µM
same,IC50,NOS-1,1.65 µM
same,IC50,LOX IMVI,> 2 µM
same,IC50,LAN-6,> 2 µM
same,IC50,CGTH-W-1,0.384 µM
same,IC50,TE-8,> 2 µM
same,IC50,BB49-HNC,> 2 µM
same,IC50,MSTO-211H,> 2 µM
same,IC50,KM12,> 2 µM
same,IC50,NB69,> 2 µM
same,IC50,RS4-11,> 2 µM
same,IC50,KG-1,> 2 µM
same,IC50,KE-37,> 2 µM
same,IC50,IST-MES1,> 2 µM
same,IC50,SK-MEL-2,> 2 µM
same,IC50,DEL,> 2 µM
same,IC50,JAR,> 2 µM
same,IC50,LC-2-ad,> 2 µM
same,IC50,HH,> 2 µM
same,IC50,DMS-114,> 2 µM
same,IC50,MEG-01,0.0892 µM
same,IC50,HCC2218,> 2 µM
same,IC50,EW-16,> 2 µM
same,IC50,P30-OHK,> 2 µM
same,IC50,LAMA-84,0.073 µM
same,IC50,TE-10,> 2 µM
same,IC50,HEL,> 2 µM
same,IC50,ES7,> 2 µM
same,IC50,LB831-BLC,> 2 µM
same,IC50,DB,> 2 µM
same,IC50,LU-134-A,> 2 µM
same,IC50,RCC10RGB,> 2 µM
same,IC50,TGBC24TKB,> 2 µM
same,IC50,DOHH-2,> 2 µM
same,IC50,MZ2-MEL,> 2 µM
same,IC50,SHP77,> 2 µM
same,IC50,BB65-RCC,> 2 µM
same,IC50,VA-ES-BJ,> 2 µM
same,IC50,ES3,> 2 µM
same,IC50,KY821,> 2 µM
same,IC50,C8166,> 2 µM
same,IC50,COLO-829,> 2 µM
same,IC50,K562,0.224 µM
